Reference: US8778951B2, “Heteroaryl compounds and their uses” (Novartis AG, priority 2009, dated 2014)

Biological target: Cdk9/cyclinT1 (Homo sapiens (Human), UniProt P50750)
Assay: Cdk9/CyclinT1 IMAP Protocol (fluorescence polarization kinase assay)
Assay type: biochemical
Conditions: Table 2; generated using one of the two Cdk9/cyclinT1 assays (IMAP or Alpha Screen), not specified which; unit inferred
Protocol: Cdk9/CyclinT1 IMAP Protocol
The biological activity of the compounds of the invention can be determined using the assay described below.
Cdk9/cyclinT1 is purchased from Millipore, cat #14-685. The final total protein concentration in the assay 4 nM. […] The final concentration of peptide substrate is 100 nM. The ATP substrate (Adenosine-5′-triphosphate) is purchased from Roche Diagnostics, cat#1140965. The final concentration of ATP substrate is 6 uM. IMAP (Immobilized Metal Assay for Phosphochemicals) Progressive Binding reagent is purchased from Molecular Devices, cat#R8139. Fluorescence polarization (FP) is used for detection. The 5TAMRA-cdk7tide peptide is phosphorylated by Cdk9/cyclinT1 kinase using the ATP substrate. The Phospho-5TAMRA-cdk7tide peptide substrate is bound to the IMAP Progressive Binding Reagent. The binding of the IMAP Progressive Binding Reagent changes the fluorescence polarization of the 5TAMRA-cdk7tide peptide which is measured at an excitation of 531 nm and FP emission of 595 nm. Assays are carried out in 100 mM Tris, pH=7.2, mM MgCl2, 0.05% NaN3, 0.01% Tween-20, 1 mM dithiothreitol and 2.5% dimethyl sulfoxide. IMAP Progressive Binding Reagent is diluted 1:800 in 100% 1× Solution A from Molecular Devices, cat#R7285.
General protocol is as follows: To 10 ul of cdk9/cyclinT1, 0.5 ul of test compound in dimethyl sulfoxide is added. 5TAMRA-cdk7tide and ATP are mixed. 10 ul of the 5TAMRA-cdk7tide/ATP mix is added to start the reaction. The reaction is allowed to proceed for 4.5 hrs. 60 uL of IMAP Progressive Binding Reagent is added. After >1 hr of incubation, plates are read on the Envision 2101 from Perkin-Elmer. The assay is run in a 384-well format using black Corning plates, cat#3573.

Sequence of Cdk9/cyclinT1 (P50750 whole entry): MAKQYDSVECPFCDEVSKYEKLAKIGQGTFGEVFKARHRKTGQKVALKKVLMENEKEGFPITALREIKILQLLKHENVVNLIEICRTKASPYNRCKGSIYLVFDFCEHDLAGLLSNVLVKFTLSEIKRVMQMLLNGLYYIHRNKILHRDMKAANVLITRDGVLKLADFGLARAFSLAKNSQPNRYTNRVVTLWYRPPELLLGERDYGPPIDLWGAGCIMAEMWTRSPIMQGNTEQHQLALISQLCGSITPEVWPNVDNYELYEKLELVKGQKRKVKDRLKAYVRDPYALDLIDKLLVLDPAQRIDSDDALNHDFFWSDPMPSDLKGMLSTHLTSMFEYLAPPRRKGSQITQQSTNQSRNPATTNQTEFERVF
Sequence of Cdk9/cyclinT1 (O60563 whole entry partner): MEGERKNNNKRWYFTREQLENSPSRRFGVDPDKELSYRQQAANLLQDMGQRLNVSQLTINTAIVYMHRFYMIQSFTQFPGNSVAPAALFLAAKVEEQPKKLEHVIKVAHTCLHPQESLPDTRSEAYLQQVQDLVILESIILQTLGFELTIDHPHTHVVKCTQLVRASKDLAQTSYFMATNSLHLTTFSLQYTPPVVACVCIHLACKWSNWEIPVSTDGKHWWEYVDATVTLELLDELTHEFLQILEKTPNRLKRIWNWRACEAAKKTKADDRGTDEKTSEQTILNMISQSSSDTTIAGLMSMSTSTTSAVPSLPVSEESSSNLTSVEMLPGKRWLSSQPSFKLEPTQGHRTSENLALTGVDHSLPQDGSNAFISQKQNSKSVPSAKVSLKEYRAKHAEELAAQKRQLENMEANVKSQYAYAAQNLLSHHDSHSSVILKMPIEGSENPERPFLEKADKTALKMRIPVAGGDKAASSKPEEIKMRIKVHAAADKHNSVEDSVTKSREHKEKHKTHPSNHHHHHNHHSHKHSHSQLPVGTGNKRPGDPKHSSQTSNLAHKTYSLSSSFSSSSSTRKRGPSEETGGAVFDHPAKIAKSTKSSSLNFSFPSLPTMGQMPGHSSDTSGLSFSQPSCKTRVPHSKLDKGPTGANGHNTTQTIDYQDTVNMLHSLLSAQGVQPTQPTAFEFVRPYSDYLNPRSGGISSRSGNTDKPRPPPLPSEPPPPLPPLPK

Row | Molecule | IC50 [nM]
1 | 3,5′-dichloro-N6-((tetrahydro-2H-pyran-4-yl)methyl)-N2′-(trans-4-(((R)-tetrahydrofuran-2-yl)methyl)aminocyclohexyl)-2,4′-bipyridine-2′,6-diamine [Compound 268] | 8.14
2 | Clc1cnc(N[C@H]2CC[C@H](NC3CCOC3)CC2)cc1-c1nc(NCC2CCOCC2)ccc1Cl (mixture of isomers) [Compound 280, 3,5′-dichloro-N6-((tetrahydro-2H-pyran-4-yl)methyl)-N2′-(trans-4-(tetrahydrofuran-3-yl-amino)cyclohexyl)-2,4′-bipyridine-2′,6-diamine] | 16.1
3 | CC1(C)C[C@H](CNc2cccc(-c3cc(N[C@H]4CC[C@H](N)CC4)ncc3Cl)n2)CCO1 (single isomer, unassigned) [Compound 256] | 7.94
4 | CC1(C)C[C@@H](CNc2cccc(-c3cc(N[C@H]4CC[C@H](N)CC4)ncc3Cl)n2)CCO1 (single isomer, unassigned) [Compound 257] | 7.94
5 | C[C@H]1C[C@@H](Nc2cc(-c3cccc(NCc4cccc(F)c4)n3)c(Cl)cn2)CC[C@@H]1N (stereo in doubt) [Compound 152] | 27
6 | COC[C@@H](C)N[C@H]1CC[C@H](Nc2cc(-c3nc(NCC4CCCCO4)ccc3Cl)c(Cl)cn2)CC1 (stereo in doubt) [Compound 321, 3,5′-dichloro-N2′-(trans-4-((R)-1-methoxypropan-2-yl-amino)cyclohexyl)-N6-(((S)-tetrahydro-2H-pyran-2-yl)methyl)-2,4′-bipyridine-2′,6-diamine] | 11
7 | COC[C@@H](C)N[C@H]1CC[C@H](Nc2cc(-c3nc(NCC4CCCCO4)ccc3Cl)c(Cl)cn2)CC1 (stereo in doubt) [Compound 325, 3,5′-dichloro-N2′-(trans-4-((R)-1-methoxypropan-2-yl-amino)cyclohexyl)-N6-(((R)-tetrahydro-2H-pyran-2-yl)methyl)-2,4′-bipyridine-2′,6-diamine] | 10
8 | N[C@H]1CC[C@H](Nc2cc(-c3cccc(NCc4cccc(F)c4)n3)c(Cl)cn2)CC1 [Compound 1, N2′-(trans-4-aminocyclohexyl)-5′-chloro-N6-(3-fluorobenzyl)-2,4′-bipyridine-2′,6-diamine] | 7.95
9 | N[C@H]1CC[C@H](Nc2cc(-c3cccc(NCC4CCCCC4)n3)ccn2)CC1 [Compound 2, N2′-(trans-4-aminocyclohexyl)-N6-(cyclohexylmethyl)-2,4′-bipyridine-2′,6-diamine] | 25.6
10 | N[C@H]1CC[C@H](Nc2ncc(Cl)c(-c3cccc(NCC4CCCCC4)n3)n2)CC1 [Compound 3, trans-N1-(5-chloro-4-(6-(cyclohexylmethylamino)pyridin-2-yl)pyrimidin-2-yl)cyclohexane-1,4-diamine] | 238
11 | NC[C@H]1CC[C@H](Nc2cc(-c3cccc(NCc4cccc(F)c4)n3)c(Cl)cn2)CC1 [Compound 4, N2′-(trans-4-(aminomethyl)cyclohexyl)-5′-chloro-N6-(3-fluorobenzyl)-2,4′-bipyridine-2′,6-diamine] | 9.05
12 | Fc1cccc(CNc2cccc(-c3cc(NC4CCNCC4)ncc3Cl)n2)c1 [Compound 5, 5′-chloro-N6-(3-fluorobenzyl)-N2′-(piperidin-4-yl)-2,4′-bipyridine-2′,6-diamine] | 39.7
13 | CCS(=O)(=O)N1CCC(Nc2cc(-c3cccc(NCc4cccc(F)c4)n3)c(Cl)cn2)CC1 [Compound 6, 5′-chloro-N2′-(1-(ethylsulfonyl)piperidin-4-yl)-N6-(3-fluorobenzyl)-2,4′-bipyridine-2′,6-diamine] | 136
14 | CN(C)CC(=O)N[C@H]1CC[C@H](Nc2cc(-c3cccc(NCc4cccc(F)c4)n3)c(Cl)cn2)CC1 [Compound 7, N-(trans-4-(5′-chloro-6-(3-fluorobenzylamino)-2,4′-bipyridin-2′-yl-amino)cyclohexyl)-2-(dimethylamino)acetamide] | 24.8
15 | O[C@H]1CC[C@H](Nc2cc(-c3cccc(NC4CCNCC4)n3)c(Cl)cn2)CC1 [Compound 8, trans-4-(5′-chloro-6-(piperidin-4-yl-amino)-2,4′-bipyridin-2′-yl-amino)cyclohexanol] | 84.8
16 | NC[C@H]1CC[C@H](Nc2cc(-c3cccc(OCc4cccc(F)c4)n3)c(Cl)cn2)CC1 [Compound 9, N-(trans-4-(aminomethyl)cyclohexyl)-5′-chloro-6-(3-fluorobenzyloxy)-2,4′-bipyridin-2′-amine] | 7.95
17 | Fc1cccc(CNc2cncc(-c3ccnc(N[C@H]4CC[C@H](NCc5ccccc5)CC4)c3)n2)c1 [Compound 10, trans-N1-benzyl-N4-(4-(6-(3-fluorobenzylamino)pyrazin-2-yl)pyridin-2-yl)cyclohexane-1,4-diamine] | 18.6
18 | N[C@H]1CC[C@H](Nc2cc(-c3cc(C(F)(F)F)cc(NCc4cccc(F)c4)n3)ccn2)CC1 [Compound 11, N2′-(trans-4-aminocyclohexyl)-N6-(3-fluorobenzyl)-4-(trifluoromethyl)-2,4′-bipyridine-2′,6-diamine] | 133
19 | N#Cc1ccc(-c2cc(N[C@H]3CC[C@H](N)CC3)ncc2Cl)nc1NCc1cccc(F)c1 [Compound 13, 2′-((1r,4r)-4-amonocyclohexylamino)-5′-chloro-6-(3-fluorobenzylamino)-2,4′-bipyridine-5-carbonitrile] | 7.95

Row | Molecule | IC50 [nM]
20 | NC(=O)c1ccc(-c2cc(N[C@H]3CC[C@H](N)CC3)ncc2Cl)nc1NCc1cccc(F)c1 [Compound 14, 2′-((1r,4r)-4-aminocyclohexylamino)-5′-chloro-6-(3-fluorobenzylamino)-2,4′-bipyridine-5-carboxamide] | 522
21 | NC(=O)c1cc(NCc2cccc(F)c2)nc(-c2cc(N[C@H]3CC[C@H](N)CC3)ncc2Cl)c1 [Compound 16, 2′-(trans-4-aminocyclohexylamino)-5′-chloro-6-(3-fluorobenzylamino)-2,4′-bipyridine-4-carboxamide] | 23.6
22 | N[C@H]1CC[C@H](Nc2cc(-c3cc(C(=O)O)cc(NCc4cccc(F)c4)n3)c(Cl)cn2)CC1 [Compound 17, 2′-(trans-4-aminocyclohexylamino)-5′-chloro-6-(3-fluorobenzylamino)-2,4′-bipyridine-4-carboxylic acid] | 23.2
23 | OCCN[C@H]1CC[C@H](Nc2cc(-c3cccc(NCc4cccc(F)c4)n3)c(Cl)cn2)CC1 [Compound 19, 2-(trans-4-(5′-chloro-6-(3-fluorobenzylamino)-2,4′-bipyridin-2′-yl-amino)cyclohexylamino)ethanol] | 7.95
24 | CS(=O)(=O)CCN[C@H]1CC[C@H](Nc2cc(-c3cccc(NCc4cccc(F)c4)n3)c(Cl)cn2)CC1 [Compound 20, 5′-chloro-N6-(3-fluorobenzyl)-N2′-(trans-4-(2-(methylsulfonyl)ethylamino)cyclohexyl)-2,4′-bipyridine-2′,6-diamine] | 7.95
25 | CN[C@H]1CC[C@H](Nc2cc(-c3cccc(NCc4cccc(F)c4)n3)c(Cl)cn2)CC1 [Compound 21, 5′-chloro-N6-(3-fluorobenzyl)-N2′-(trans-4-(methylamino)cyclohexyl)-2,4′-bipyridine-2′,6-diamine] | 7.95
26 | CNC[C@H]1CC[C@H](Nc2cc(-c3cccc(NCc4cccc(F)c4)n3)c(Cl)cn2)CC1 [Compound 22, 5′-chloro-N6-(3-fluorobenzyl)-N2′-(trans-4-((methylamino)methyl)cyclohexyl)-2,4′-bipyridine-2′,6-diamine] | 7.95
27 | Fc1cc(F)cc(CNc2cccc(-c3cc(N[C@H]4CC[C@H](N5CCCC5)CC4)ncc3Cl)n2)c1 [Compound 23, 5′-chloro-N6-(3,5-difluorobenzyl)-N2′-(trans-4-(pyrrolidin-1-yl)cyclohexyl)-2,4′-bipyridine-2′,6-diamine] | 7.95
28 | N[C@H]1CC[C@H](Nc2cc(-c3cccc(NCC4CCCCC4)n3)c(Cl)cn2)CC1 [Compound 24] | 12.4
29 | N[C@H]1CC[C@H](Nc2cc(-c3cccc(NCc4ccccc4)n3)c(Cl)cn2)CC1 [Compound 25] | 8.08
30 | N[C@H]1CC[C@H](Nc2cc(-c3cccc(NCc4cccnc4)n3)c(Cl)cn2)CC1 [Compound 26] | 16.3
31 | N[C@H]1CC[C@H](Nc2cc(-c3cccc(NCc4cc(F)cc(F)c4)n3)c(Cl)cn2)CC1 [Compound 29] | 7.95
32 | N[C@H]1CC[C@H](Nc2cc(-c3cccc(NCc4ccccc4)n3)ccn2)CC1 [Compound 31] | 44.8
33 | N[C@H]1CC[C@H](Nc2cc(-c3cccc(NCc4cccc(F)c4)n3)ccn2)CC1 [Compound 32] | 15
34 | N[C@H]1CC[C@H](Nc2cc(-c3cccc(NCc4ccncc4)n3)ccn2)CC1 [Compound 33] | 27
35 | N[C@H]1CC[C@H](Nc2ncc(Cl)c(-c3cccc(NCc4cccc(F)c4)n3)n2)CC1 [Compound 34] | 48.3
36 | N[C@H]1CC[C@H](Nc2ncc(Cl)c(-c3cccc(NCc4ccncc4)n3)n2)CC1 [Compound 35] | 55.8
37 | N[C@H]1CC[C@H](Nc2cc(-c3cccc(NCc4cccc(OC(F)F)c4)n3)c(Cl)cn2)CC1 [Compound 36] | 8.91
